According to patent US20170136008A1, “OXABICYCLOHEPTANES AND OXABICYCLOHEPTENES FOR THE TREATMENT OF OVARIAN CANCER” (priority 2014, published 2017):

What was measured:
OVCAR-8 NT shRNA cells = assay: Cell viability (MTT) assay, OVCAR-8 NT shRNA; assay type: cell-based; settings: Homo sapiens; OVCAR-8 NT shRNA (control)
Protocol: Cell survival was measured by the 3-(4,5-dimethylthiazol-2-yl)-2,5-diphenyltetrazolium bromide (MTT, Invitrogen) assay. Cells were seeded at a density of 5,000 cells per well in 96-well plates and incubated at 37° C. in humidified 5% CO2 for 24 hours. The 50% inhibitory concentration (IC50) values were defined as the drug concentrations required to reduce cellular proliferation to 50% of the untreated control well. […] All MTT assays were carried out according to the manufacturer's instructions (Molecular Probes, Eugen, Oreg.). Absorbance values were determined at […] on a Spectra Max 250 spectrophotometer (Molecular Devices, Sunnyvale, Calif.). All MTT assays were performed in triplicate. […] Cells were treated with both drugs for 72 h. Cell viability was analyzed via the MTT assay as described above. Experiments were performed in triplicate, and the data are presented as a percent mean±SD.
To stably knockdown expression of PP2AC, a pLKO.1-puro plasmid-based […] shRNA targeting the sequence: […] (clone ID:TRCN0000002483, Sigma-Aldrich) was employed (PP2AC-shRNA). Additionally, a non-targeting shRNA plasmid (NT-shRNA) that targets no known human sequence was utilized as a control. […]

SKOV-3 cells = assay: Cell-cycle analysis (FACS), SKOV-3; assay type: cell-based, human
Protocol: For cell-cycle analysis, cells were washed with PBS and fixed overnight in ice-cold 70% ethanol and stored at 4° C. Cells were then centrifuged and resuspended in 100 U RNAse (Sigma-Aldrich), and incubated at 37° C. for 20 min. Propidiumidodide solution (Invitrogen, 500 μL, 50 μg/mL in DPBS) was added to each tube and incubated in the dark at 4° C. overnight. Flow cytometry analysis was performed with CellQuestPro and data analysis was completed with ModFit LT. All data is in triplicate and presented as a percent mean±SD.

[1] = system: DNA damage response, checkpoint and apoptosis proteins in SKOV-3 cells; assay: Immunoblotting, SKOV-3 cells; assay type: cell-based, human
Protocol: Whole cell and homogenized tumor tissues were lysed in NP-40 lysis buffer [50 mM Tris/HCl, pH 7.4, 150 mM NaCl and 1% Nonidet P40, supplemented with Complete Protrase Inhibitor Cocktail tablets and PhosStop phosphatase inhibitors (Roche, Indianapolis, Ind.)] and prepared as previously described (Madigan, J. P. et al. 2009). Protein (40 μg) was resolved on SDS/PAGE (12% or 15% gels) and transferred onto Immobilon PVDF membrane. The membrane was then blocked for 1 hour at room temperature in 5% (w/v) non-fat milk in TBS-Tween and probed overnight with primary antibodies. After extensive washing, cells were probed with anti-rabbit or anti-mouse IgG-horseradish per oxidase (HRP)-conjugated secondary antibodies (Cell Signaling Technology, Danvers, Mass.) in blocking buffer for 1 h. Membranes were subsequently incubated in Immobilon Western blot Chemiluminescent HRP Substrate (Millipore) and developed on biomax XAR film (Kodak). Antibodies were purchased from Cell Signaling Technology: γH2AX (Ser139), p-Wee1 (Ser 642), Wee1, p-cdc2 (Tyr15), p-BRCA1 (Ser1524), p-Chk1 (Ser345), p-Chk1 (Ser317), Chk-1, phospho-Chk2 (Thr68), PP2Ac, cleaved caspase-3 (Asp175), cleaved PARP (Asp214), p-histone H3 (Ser10), p-ATR (Ser428), and p-(Ser)14-3-3 binding motif.

[2] = system: SKOV-3 ovarian cancer cells; assay: MTT cytotoxicity assay, SKOV-3; assay type: cell-based, human
[3] = system: PEO4 ovarian cancer cell line; assay: MTT cytotoxicity assay, PEO4; assay type: cell-based, human; settings: Homo sapiens, PEO4, read-out: IC50, viability of ovarian cancer cell line
Protocol: SKOV-3 ovarian cancer cells were purchased from American Type Culture Collection (ATCC) (Manassas, Va.). SKOV-3 cells were cultured in McCoy's 5A medium (ATCC, Manassas, Va.) supplemented with 10% fetal bovine serum and 100 units/mL penicillin G sodium, 100 ug/mL streptomycin sulfate, and 292 μg/ml, L-glutamine (BioWhittaker, Wakersville, Md.). Luciferase-expressing cells were generated by infecting SKOV-3 cells with pCLNCX-luciferase retrovirus (SKOV-3-Luc) as previously reported (Wei, B. R. et al. 2009). Human OVCAR-8 ovarian cancer cells were provided by the National Cancer Institute (part of the NCI-60 collection). The PEO1, PEO4, and PEO6 ovarian cancer cell lines have previously been characterized (Langdon, S. P. et al. 1988) and were kindly provided by Dr. Ian Goldlust (National Center for Advancing Translational Sciences, Shady Grove, Md.). […]
Cell survival was measured by the 3-(4,5-dimethylthiazol-2-yl)-2,5-diphenyltetrazolium bromide (MTT, Invitrogen) assay. […] Absorbance values were determined at […] on a Spectra Max 250 spectrophotometer (Molecular Devices, Sunnyvale, Calif.). […] Cell viability was analyzed via the MTT assay as described above. […]

## CN1CCN(C(=O)C2C(C(=O)O)[C@H]3CC[C@@H]2O3)CC1 (stereo partly shown) [LB100]
OVCAR-8 NT shRNA cells
  IC50: 15.7 ± 1.3 µM
SKOV-3 cells; 24 h, LB100 5 μM
  G1 (%): 51.4 ± 1.5%
  G2/M (%): 28.9 ± 1.2%
  S (%): 19.7 ± 0.8%
SKOV-3 cells; 48 h, LB100 2 μM
  G1 (%): 49.8 ± 0.5%
  G2/M (%): 25.1±0.8%
  S (%): 25.1 ± 0.3%
SKOV-3 cells; 48 h, LB100 5 μM
  G1 (%): 47.2 ± 1.9%
  G2/M (%): 25.1 ± 0.8%
  S (%): 30.2 ± 3.1%
SKOV-3 cells; 48 h, LB100 10 μM
  G1 (%): 36.8 ± 1.8%
  G2/M (%): 32.1±1.6%
  S (%): 31.1 ± 0.8%
SKOV-3 cells; 48 h, LB100 15 μM
  G1 (%): 42.3 ± 1.6%
  G2/M (%): 33.9±1.4%
  S (%): 23.8 ± 0.2%
[1]; LB100-treated SKOV-3 cells
  expression of p-Ser14-3-3 binding motifs compared to control treatment: widespread increased expression
[1]; SKOV-3, LB100
  phosphorylation of γH2AX, Chk2, and BRCA1 at 24 h, and JNK at 72 h: enhanced and prolonged
[1]; SKOV-3, LB100 5 μM, 24 h
  phosphorylation of Wee-1 compared to control: induced hyperphosphorylation
[2]; Homo sapiens, SK-OV-3, SK-OV3, MTT, read-out: IC50, viability of ovarian cancer cell line
  IC50: 10.1 ± 1.6 µM
[2]; SKOV-3 vs other ovarian lines
  fold less sensitive compared to the other ovarian lines: 2 fold
[3]
  IC50: 5 ± 0.6 µM
